Measurements: patent publication US20160272937A1, “METHODS OF GENERATING INTERMEDIATE MESODERM CELLS FROM HUMAN PLURIPOTENT STEM CELLS” (THE BRIGHAM AND WOMEN'S HOSPITAL, INC., priority 2013, published 2016)

Tests used:
[1] = tested on: hPSCs (hESC and hiPSC lines); experiment: Intermediate mesoderm differentiation: PAX2/LHX1 immunostaining; assay type: cell-based, human; conditions: CHIR pre-treatment 48 hours compared to 24 or 36 hours, all time points
Protocol: Mesendoderm differentiation—the media is changed to Advanced RPMI (A-RPMI, Invitrogen) supplemented with 1×L-glutamax and 1× penicillin/streptomycin and either CHIR99021 (CHIR, Stemgent), human Wnt3a (R&D systems), and/or human activin A (R&D systems) at the doses described. Definitive endoderm differentiation—cells are treated with A-RPMI+1×L-glu+1×P/S+5 μM CHIR for 24 hours, then A-RPMI+1×Lglu+1×P/S+100 ng/mL of activin A for 2-3 days. Hepatic differentiation—cells at the definitive endoderm stage are treated with A-RPMI+1×L-glu+1×P/S+1×B27 supplement (Invitrogen)+20 ng/mL BMP-4 (R&D systems)+10 ng/mL FGF2 (Invitrogen) for 5 days, then A-RPMI+1×L-glu+1×P/S+1×B27+10 ng/mL HGF for 5 days, then HCM Hepatocyte Culture Medium (Lonza) supplemented with 20 ng/mL Oncostatin M and 10 ng/mL HGF (Peprotech) for 5 days. Pancreatic differentiation—cells at the definitive endoderm stage are treated with DMEM/F12+2% FBS (Hyclone)+50 ng/mL FGF7 (R&D systems) for 2 days, then high-glucose DMEM (Mediatech)+1% B27+2 μM retinoic acid (Sigma)+0.25 μM KAAD cyclopamine (EMD Millipore)+100 ng/mL recombinant human Noggin (R&D systems) for 4 days, then high-glucose DMEM+1% B27+100 ng/mL Noggin+300 nM indolactam V (Stemgent)+1 μM ALK5 inhibitor II (Axxora) for 4 days. Anterior foregut endoderm differentiation—cells at the definitive endoderm stage are treated with DMEM/F12+1×L-glu+1×B27+200 ng/mL Noggin+10 μM SB431542 (Stemgent) for 3 days. For hindgut endoderm differentiation, cells at the definitive endoderm stage were treated with A-RPMI+1×L-glu+1×P/S+2% FBS+500 ng/mL FGF4 (R&D systems)+5 μM CHIR for 4 days. […]
Nuclei can be counterstained with DAPI (Sigma). […] Immunofluorescence is visualized using an inverted fluorescence microscope (Nikon Eclipse Ti, Tokyo, Japan). Quantification is performed by counting a minimum of five random fields at 10× magnification. […]

[2] = tested on: hPSC-derived SIX2+ cells; experiment: Response of hPSC-derived SIX2+ cells to canonical Wnt signaling (CHIR); assay type: cell-based, human
Protocol: To test the competence of hPSC-derived SIX2+ cells to respond to canonical Wnt signaling, the Inventors treated cells on day 6 of differentiation with […] CHIR for 24 hours, followed by withdrawal of CHIR. […] Furthermore, hPSC-derived SIX2+ cells explanted into dissociated-reaggregated mouse embryonic kidneys formed organizing clusters of cells that expressed LTL (FIG. 7I). The Inventors therefore concluded that the ability of hPSCderived PAX2+LHX1+ cells to be differentiated into cells expressing multiple markers of kidney CMand that could form tubule like structures in response to Wnt signaling was consistent with the behavior and function of nephrogenic IM cells.

[3] = tested on: human pluripotent stem cells (hPSCs); experiment: Spontaneous differentiation of CHIR-induced mesendodermal cells after CHIR withdrawal, marker immunocytochemistry; assay type: cell-based; conditions: day 4
Protocol: Mesendoderm differentiation—the media is changed to Advanced RPMI (A-RPMI, Invitrogen) supplemented with 1×L-glutamax and 1× penicillin/streptomycin and either CHIR99021 (CHIR, Stemgent), human Wnt3a (R&D systems), and/or human activin A (R&D systems) at the doses described. Definitive endoderm differentiation—cells are treated with A-RPMI+1×L-glu+1×P/S+5 μM CHIR for 24 hours, then A-RPMI+1×Lglu+1×P/S+100 ng/mL of activin A for 2-3 days. Hepatic differentiation—cells at the definitive endoderm stage are treated with A-RPMI+1×L-glu+1×P/S+1×B27 supplement (Invitrogen)+20 ng/mL BMP-4 (R&D systems)+10 ng/mL FGF2 (Invitrogen) for 5 days, then A-RPMI+1×L-glu+1×P/S+1×B27+10 ng/mL HGF for 5 days, then HCM Hepatocyte Culture Medium (Lonza) supplemented with 20 ng/mL Oncostatin M and 10 ng/mL HGF (Peprotech) for 5 days. Pancreatic differentiation—cells at the definitive endoderm stage are treated with DMEM/F12+2% FBS (Hyclone)+50 ng/mL FGF7 (R&D systems) for 2 days, then high-glucose DMEM (Mediatech)+1% B27+2 μM retinoic acid (Sigma)+0.25 μM KAAD cyclopamine (EMD Millipore)+100 ng/mL recombinant human Noggin (R&D systems) for 4 days, then high-glucose DMEM+1% B27+100 ng/mL Noggin+300 nM indolactam V (Stemgent)+1 μM ALK5 inhibitor II (Axxora) for 4 days. Anterior foregut endoderm differentiation—cells at the definitive endoderm stage are treated with DMEM/F12+1×L-glu+1×B27+200 ng/mL Noggin+10 μM SB431542 (Stemgent) for 3 days. For hindgut endoderm differentiation, cells at the definitive endoderm stage were treated with A-RPMI+1×L-glu+1×P/S+2% FBS+500 ng/mL FGF4 (R&D systems)+5 μM CHIR for 4 days. Intermediate mesoderm differentiation—cells are treated with A-RPMI+1×L-glu+1×P/S+5 μM CHIR for 24, 36, or 48 hours, then A-RPMI+1×L-glu+1×P/S+100 ng/mL FGF2+1 μM retinoic acid for 2-3 days. Cap mesenchyme differentiation—cells were treated with A-RPMI+13 L-glu+13 P/S+[…] CHIR for 36 hours, then A-RPMI+13 L-glu+13 P/S+100 ng/ml FGF2+1 mM retinoic acid for 36-42 hours, then A-RPMI+13L-glu+13P/S+100 ng/ml FGF-9 (R&D Systems)+10 ng/ml activin A for 3 days.
For immunofluorescence studies, cultures are washed once with PBS (Invitrogen) and fixed in 4% paraformaldehyde for 15 min at room temperature (RT). Fixed cells are then washed three times in PBS and incubated in blocking buffer (0.3% Triton X-100 (Fisher Scientific) and 5% normal donkey serum (EMD Millipore) in PBS) for 1 hour at RT.
The cells are then incubated with primary antibody overnight at 4° C. or for 2 hours at RT in antibody dilution buffer (0.3% Triton X-100 and 1% BSA (Roche) in PBS). Cells are then washed three times in PBS and incubated with Alexa Fluor 488-, 555-, or 647-conjugated secondary antibodies (1:500) (Molecular Probes) in antibody dilution buffer for 1 hour at RT. For immunostaining with Biotinylated Lotus Tetragonolobus Lectin (LTL, Vector Labs), a Streptavidin/Biotin Blocking Kit (Vector Labs) and Alexa Fluor 488- or 647-conjugated Streptavidin (Molecular Probes) were used according to manufacturer's instructions.
Nuclei can be counterstained with DAPI (Sigma). […] Immunofluorescence is visualized using an inverted fluorescence microscope (Nikon Eclipse Ti, Tokyo, Japan). Quantification is performed by counting a minimum of five random fields at 10× magnification.
To determine whether treatment with CHIR alone is sufficient to induce differentiation towards IM, the Inventors investigated the intrinsic multipotency of CHIR-induced mesendodermal cells by withdrawing CHIR from the culture media after either 24 or 48 hours of induction and allowing the cells to differentiate for another 3-4 days (FIG. 2A).

[4] = 5 mM CHIR for 24 hours on day 6, read on day 8, compared with cells not treated with CHIR
[5] = CHIR pulse 24 hours then withdrawal

Cc1c[nH]c(-c2cnc(NCCNc3ccc(C#N)cn3)nc2-c2ccc(Cl)cc2Cl)n1 [CHIR99021]
PAX2 expression [1]: less PAX2 expression | SIX2 expression [2, 4]: downregulation of SIX2 expression | expression of proximal tubule marker LTL [2, 4]: increased expression | cell morphology ([2]; within 24 hours of 5 mM CHIR treatment): formation of tubular-like structures | FOXF1+ lateral plate mesoderm cells [3, 5]: approximately 40% | cells expressing pluripotency marker OCT4 [3, 5]: 30-40% | appearance of OCT4+ cells ([3]; CHIR treatment 48 hours): eliminated the appearance of OCT4+ cells | cells staining positive for FOXF1 ([3]; CHIR treatment 48 hours): greater than 80% | cells expressing PAX6 ([3]; CHIR treatment alone): < 1% | cells expressing SOX17 ([3]; CHIR treatment alone): < 1% | cells with protein expression of IM marker PAX2 ([3]; CHIR treatment alone): < 1% | cells with protein expression of paraxial mesoderm marker TBX6 ([3]; CHIR treatment alone): < 10%
